Measured values taken from article PMC6409085, “Three odorant-binding proteins are involved in the behavioral response of Sogatella furcifera to rice plant volatiles” (PeerJ, 2019).
Where “and” joins values, the source holds several entries; their conditions need not be identical. Identical values can stand only once.

Columns and labels:
SfurOBP1 = SfurOBP1 (Sogatella furcifera, UniProt V5T8N5); test: biochemical; assay type: binding; settings: for Fluorescence competitive binding assay, fluorescence intensity: OBP1, three replicate columns
In short: (§1)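 Protein 2.0 µM + 1-NPN 2.0 µM, 50 mM Tris-HCl pH 7.4; competitor odorants 2, 4 … 20 µM final; read 2 min post-addition, ex 337/em 390–490 nm; n=3. K1-NPN from 1-NPN titration/Scatchard; Ki from IC50 corrected for free 1-NPN.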

SfurOBP11 = SfurOBP11 (Sogatella furcifera, UniProt V5T6E3); test: biochemical; assay type: binding
In short: as §1

SfurOBP3 = SfurOBP3 (Sogatella furcifera, UniProt V5T818); test: biochemical; assay type: binding; settings: for Fluorescence competitive binding assay, fluorescence intensity: OBP3, three replicate columns
In short: as §1

SfurOBP2 = SfurOBP2 (Sogatella furcifera, UniProt V5T759); test: biochemical; assay type: binding
In short: as §1

S. furcifera adults = test: Y-tube olfactometer behavioral trials; assay type: in vivo, Sogatella furcifera; settings: odorant 50 µL/L vs hexane
In short: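 Single S. furcifera adults (2 days post-emergence, starved 0.5 h) chose between odorant (100 µL of 50 µL/L on filter paper) and hexane control in a glass Y-tube, charcoal-filtered humidified air 300 mL/min per arm, 25 ± 1 °C, 50% RH. Choice scored if insect passed half an arm and stayed >1 min within 10 min; 45 insects per compound, chi-squared test.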

SfurOBP3, sequence (V5T818 entry or part of it): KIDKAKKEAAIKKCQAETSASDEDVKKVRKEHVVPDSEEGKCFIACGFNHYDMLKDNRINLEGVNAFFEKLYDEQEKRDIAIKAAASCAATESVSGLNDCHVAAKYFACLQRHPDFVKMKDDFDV
SfurOBP11, sequence (V5T6E3 entry or part of it): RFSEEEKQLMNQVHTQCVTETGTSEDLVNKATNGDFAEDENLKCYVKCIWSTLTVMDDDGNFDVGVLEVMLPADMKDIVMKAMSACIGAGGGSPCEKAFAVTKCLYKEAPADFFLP
SfurOBP2, sequence (V5T759 entry or part of it): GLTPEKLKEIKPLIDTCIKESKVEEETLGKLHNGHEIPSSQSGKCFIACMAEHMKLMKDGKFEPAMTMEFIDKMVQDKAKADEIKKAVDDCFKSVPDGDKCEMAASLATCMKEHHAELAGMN
SfurOBP1, sequence (V5T8N5 entry or part of it): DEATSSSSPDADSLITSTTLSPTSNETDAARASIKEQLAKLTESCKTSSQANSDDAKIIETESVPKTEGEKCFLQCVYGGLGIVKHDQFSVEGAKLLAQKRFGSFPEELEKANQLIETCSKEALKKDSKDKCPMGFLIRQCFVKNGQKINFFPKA

- Fluorescence competitive binding assay, fluorescence intensity (SfurOBP1; ligand concentration 2 (μM)): 5574 and 5550 and 5238
- Fluorescence competitive binding assay, fluorescence intensity (SfurOBP1; ligand concentration 4 (μM)): 4710 and 5782 and 5020
- Fluorescence competitive binding assay, fluorescence intensity (SfurOBP1; ligand concentration 6 (μM)): 5308 and 5201 and 5270
- Fluorescence competitive binding assay, fluorescence intensity (SfurOBP1; ligand concentration 8 (μM)): 4498 and 4902 and 5186
- Fluorescence competitive binding assay, fluorescence intensity (SfurOBP1; ligand concentration 10 (μM)): 4649 and 5445 and 5409
- Fluorescence competitive binding assay, fluorescence intensity (SfurOBP1; ligand concentration 12 (μM)): 5039 and 5542 and 4835
- Fluorescence competitive binding assay, fluorescence intensity (SfurOBP1; ligand concentration 14 (μM)): 5190 and 5205 and 6069
- Fluorescence competitive binding assay, fluorescence intensity (SfurOBP1; ligand concentration 16 (μM)): 4320 and 5267 and 4703
- Fluorescence competitive binding assay, fluorescence intensity (SfurOBP1; ligand concentration 18 (μM)): 5435 and 5537 and 6009
- Fluorescence competitive binding assay, fluorescence intensity (SfurOBP1; ligand concentration 20 (μM)): 6807 and 4924 and 6337
- IC50 (SfurOBP1; SfurOBP1, protein and 1-NPN both 2.0 µM, competitor 2-20 µM, read-out: IC50): > 20 µM
- IC50 (SfurOBP11; SfurOBP11, protein and 1-NPN both 2.0 µM, competitor 2-20 µM, read-out: IC50): > 20 µM
- Fluorescence intensity, fluorescence competitive binding assay, OBP11 (SfurOBP11; ligand concentration 2, replicate 1): 26535
- Fluorescence intensity, fluorescence competitive binding assay, OBP11 (SfurOBP11; ligand concentration 2, replicate 2): 26162
- Fluorescence intensity, fluorescence competitive binding assay, OBP11 (SfurOBP11; ligand concentration 2, replicate 3): 26541
- Fluorescence intensity, fluorescence competitive binding assay, OBP11 (SfurOBP11; ligand concentration 4, replicate 1): 25394
- Fluorescence intensity, fluorescence competitive binding assay, OBP11 (SfurOBP11; ligand concentration 4, replicate 2): 26325
- Fluorescence intensity, fluorescence competitive binding assay, OBP11 (SfurOBP11; ligand concentration 4, replicate 3): 27262
- Fluorescence intensity, fluorescence competitive binding assay, OBP11 (SfurOBP11; ligand concentration 6, replicate 1): 26264
- Fluorescence intensity, fluorescence competitive binding assay, OBP11 (SfurOBP11; ligand concentration 6, replicate 2): 26035
- Fluorescence intensity, fluorescence competitive binding assay, OBP11 (SfurOBP11; ligand concentration 6, replicate 3): 26502
- Fluorescence intensity, fluorescence competitive binding assay, OBP11 (SfurOBP11; ligand concentration 8, replicate 1): 25045
- Fluorescence intensity, fluorescence competitive binding assay, OBP11 (SfurOBP11; ligand concentration 8, replicate 2): 25714
- Fluorescence intensity, fluorescence competitive binding assay, OBP11 (SfurOBP11; ligand concentration 8, replicate 3): 24376
- Fluorescence intensity, fluorescence competitive binding assay, OBP11 (SfurOBP11; ligand concentration 10, replicate 1): 24885
- Fluorescence intensity, fluorescence competitive binding assay, OBP11 (SfurOBP11; ligand concentration 10, replicate 2): 24226
- Fluorescence intensity, fluorescence competitive binding assay, OBP11 (SfurOBP11; ligand concentration 10, replicate 3): 23566
- Fluorescence intensity, fluorescence competitive binding assay, OBP11 (SfurOBP11; ligand concentration 12, replicate 1): 21957
- Fluorescence intensity, fluorescence competitive binding assay, OBP11 (SfurOBP11; ligand concentration 12, replicate 2): 22135
- Fluorescence intensity, fluorescence competitive binding assay, OBP11 (SfurOBP11; ligand concentration 12, replicate 3): 20925
- Fluorescence intensity, fluorescence competitive binding assay, OBP11 (SfurOBP11; ligand concentration 14, replicate 1): 23062
- Fluorescence intensity, fluorescence competitive binding assay, OBP11 (SfurOBP11; ligand concentration 14, replicate 2): 21821
- Fluorescence intensity, fluorescence competitive binding assay, OBP11 (SfurOBP11; ligand concentration 14, replicate 3): 20452
- Fluorescence intensity, fluorescence competitive binding assay, OBP11 (SfurOBP11; ligand concentration 16, replicate 1): 19007
- Fluorescence intensity, fluorescence competitive binding assay, OBP11 (SfurOBP11; ligand concentration 16, replicate 2): 19354
- Fluorescence intensity, fluorescence competitive binding assay, OBP11 (SfurOBP11; ligand concentration 16, replicate 3): 17450
- Fluorescence intensity, fluorescence competitive binding assay, OBP11 (SfurOBP11; ligand concentration 18, replicate 1): 21957
- Fluorescence intensity, fluorescence competitive binding assay, OBP11 (SfurOBP11; ligand concentration 18, replicate 2): 23680
- Fluorescence intensity, fluorescence competitive binding assay, OBP11 (SfurOBP11; ligand concentration 18, replicate 3): 21455
- Fluorescence intensity, fluorescence competitive binding assay, OBP11 (SfurOBP11; ligand concentration 20, replicate 1): 23354
- Fluorescence intensity, fluorescence competitive binding assay, OBP11 (SfurOBP11; ligand concentration 20, replicate 2): 26458
- Fluorescence intensity, fluorescence competitive binding assay, OBP11 (SfurOBP11; ligand concentration 20, replicate 3): 24921
- Fluorescence competitive binding assay, fluorescence intensity (SfurOBP3; ligand concentration 2): 34223 and 34200 and 33767
- Fluorescence competitive binding assay, fluorescence intensity (SfurOBP3; ligand concentration 4): 34565 and 34966 and 35111
- Fluorescence competitive binding assay, fluorescence intensity (SfurOBP3; ligand concentration 6): 33473 and 32986 and 33557
- Fluorescence competitive binding assay, fluorescence intensity (SfurOBP3; ligand concentration 8): 31804 and 31815 and 33904
- Fluorescence competitive binding assay, fluorescence intensity (SfurOBP3; ligand concentration 10): 31933 and 33856 and 32393
- Fluorescence competitive binding assay, fluorescence intensity (SfurOBP3; ligand concentration 12): 28357 and 30958 and 31303
- Fluorescence competitive binding assay, fluorescence intensity (SfurOBP3; ligand concentration 14): 30291 and 29441 and 31149
- Fluorescence competitive binding assay, fluorescence intensity (SfurOBP3; ligand concentration 16): 26096 and 27512 and 26789
- Fluorescence competitive binding assay, fluorescence intensity (SfurOBP3; ligand concentration 18): 36577 and 32045 and 32081
- Fluorescence competitive binding assay, fluorescence intensity (SfurOBP3; ligand concentration 20): 29304 and 29350 and 25941
- binding affinity to SfurOBP3 (in words) (SfurOBP3; SfurOBP3): high binding affinities
- IC50 (SfurOBP3; SfurOBP3, protein and 1-NPN both 2.0 µM, competitor 2-20 µM, read-out: IC50): 17.4 µM
- IC50 (SfurOBP2; SfurOBP2, protein and 1-NPN both 2.0 µM, competitor 2-20 µM, read-out: IC50): > 20 µM
- Fluorescence competitive binding assay, OBP2 (raw fluorescence reading) (SfurOBP2; ligand concentration 2 (unit not given), replicate column 1 of 3): 18213
- Fluorescence competitive binding assay, OBP2 (raw fluorescence reading) (SfurOBP2; ligand concentration 2 (unit not given), replicate column 2 of 3): 17695
- Fluorescence competitive binding assay, OBP2 (raw fluorescence reading) (SfurOBP2; ligand concentration 2 (unit not given), replicate column 3 of 3): 18887
- Fluorescence competitive binding assay, OBP2 (raw fluorescence reading) (SfurOBP2; ligand concentration 4 (unit not given), replicate column 1 of 3): 18465
- Fluorescence competitive binding assay, OBP2 (raw fluorescence reading) (SfurOBP2; ligand concentration 4 (unit not given), replicate column 2 of 3): 18805
- Fluorescence competitive binding assay, OBP2 (raw fluorescence reading) (SfurOBP2; ligand concentration 4 (unit not given), replicate column 3 of 3): 18729
- Fluorescence competitive binding assay, OBP2 (raw fluorescence reading) (SfurOBP2; ligand concentration 6 (unit not given), replicate column 1 of 3): 17576
- Fluorescence competitive binding assay, OBP2 (raw fluorescence reading) (SfurOBP2; ligand concentration 6 (unit not given), replicate column 2 of 3): 17836
- Fluorescence competitive binding assay, OBP2 (raw fluorescence reading) (SfurOBP2; ligand concentration 6 (unit not given), replicate column 3 of 3): 18066
- Fluorescence competitive binding assay, OBP2 (raw fluorescence reading) (SfurOBP2; ligand concentration 8 (unit not given), replicate column 1 of 3): 15752
- Fluorescence competitive binding assay, OBP2 (raw fluorescence reading) (SfurOBP2; ligand concentration 8 (unit not given), replicate column 2 of 3): 18865
- Fluorescence competitive binding assay, OBP2 (raw fluorescence reading) (SfurOBP2; ligand concentration 8 (unit not given), replicate column 3 of 3): 17007
- Fluorescence competitive binding assay, OBP2 (raw fluorescence reading) (SfurOBP2; ligand concentration 10 (unit not given), replicate column 1 of 3): 16925
- Fluorescence competitive binding assay, OBP2 (raw fluorescence reading) (SfurOBP2; ligand concentration 10 (unit not given), replicate column 2 of 3): 17786
- Fluorescence competitive binding assay, OBP2 (raw fluorescence reading) (SfurOBP2; ligand concentration 10 (unit not given), replicate column 3 of 3): 17356
- Fluorescence competitive binding assay, OBP2 (raw fluorescence reading) (SfurOBP2; ligand concentration 12 (unit not given), replicate column 1 of 3): 16049
- Fluorescence competitive binding assay, OBP2 (raw fluorescence reading) (SfurOBP2; ligand concentration 12 (unit not given), replicate column 2 of 3): 16437
- Fluorescence competitive binding assay, OBP2 (raw fluorescence reading) (SfurOBP2; ligand concentration 12 (unit not given), replicate column 3 of 3): 16824
- Fluorescence competitive binding assay, OBP2 (raw fluorescence reading) (SfurOBP2; ligand concentration 14 (unit not given), replicate column 1 of 3): 15270
- Fluorescence competitive binding assay, OBP2 (raw fluorescence reading) (SfurOBP2; ligand concentration 14 (unit not given), replicate column 2 of 3): 15647
- Fluorescence competitive binding assay, OBP2 (raw fluorescence reading) (SfurOBP2; ligand concentration 14 (unit not given), replicate column 3 of 3): 14905
- Fluorescence competitive binding assay, OBP2 (raw fluorescence reading) (SfurOBP2; ligand concentration 16 (unit not given), replicate column 1 of 3): 15319
- Fluorescence competitive binding assay, OBP2 (raw fluorescence reading) (SfurOBP2; ligand concentration 16 (unit not given), replicate column 2 of 3): 14300
- Fluorescence competitive binding assay, OBP2 (raw fluorescence reading) (SfurOBP2; ligand concentration 16 (unit not given), replicate column 3 of 3): 16123
- Fluorescence competitive binding assay, OBP2 (raw fluorescence reading) (SfurOBP2; ligand concentration 18 (unit not given), replicate column 1 of 3): 15075
- Fluorescence competitive binding assay, OBP2 (raw fluorescence reading) (SfurOBP2; ligand concentration 18 (unit not given), replicate column 2 of 3): 15152
- Fluorescence competitive binding assay, OBP2 (raw fluorescence reading) (SfurOBP2; ligand concentration 18 (unit not given), replicate column 3 of 3): 15228
- Fluorescence competitive binding assay, OBP2 (raw fluorescence reading) (SfurOBP2; ligand concentration 20 (unit not given), replicate column 1 of 3): 14131
- Fluorescence competitive binding assay, OBP2 (raw fluorescence reading) (SfurOBP2; ligand concentration 20 (unit not given), replicate column 2 of 3): 14026
- Fluorescence competitive binding assay, OBP2 (raw fluorescence reading) (SfurOBP2; ligand concentration 20 (unit not given), replicate column 3 of 3): 13920
Compound: CC(=O)c1ccccc1 [acetophenone]
- behavioral response of S. furcifera (in words) (S. furcifera adults): strongly attracted
- number of insects choosing hexane arm (S. furcifera adults; adults): 11
- number of insects choosing volatilies arm (S. furcifera adults; adults): 20
- number of insects failed (no choice) (S. furcifera adults; adults): 9
